Test results published in patent US8143276B2, “4-thio substituted quinoline and naphthyridine compounds” (XTL Biopharmaceuticals Ltd., priority 2007, dated 2012).

Key:
HCV Replicon = HCV Replicon Luciferase Assay; assay type: cell-based, Hepatitis C virus; conditions: Hepatitis C virus; Huh-Luc-Neo cells, 48 h incubation, luciferase reporter; read-out: Replicon Inhibition*, Luciferase
Description: The identification of inhibitors of HCV replication and/or proliferation has been facilitated by the development of a cell-based system to study HCV replication. Inhibition of HCV replication may be performed using the HCV Replicon Assay developed in the laboratories of Bartenschlager (Lohman et al, Science 285, 110-113, 1999) and Rice (Blight et al, Science 290, 1972-1974, 2000). The assay is performed using the Huh-Luc-Neo cell line (Lohman et al, Science 285, 110-113, 1999). Huh-Luc-Neo cells are a human hepatoma cell line (Huh-7) stably expressing a bi-cistronic subgenomic replicon containing the HCV IRES in which the structural proteins of HCV have been deleted and replaced by a construct containing sequences coding for the firefly luciferase reporter gene, the neomycin selectable marker and the EMCV IRES to direct expression of a truncated HCV genome expressing the […] NS3, NS4A, NS4B, NS5A, and NS5B. HCV targets through which inhibitors could act to inhibit replication include the NS3 protease, the helicase/ATPase, NS5A, the NS5B-RNA dependent RNA polymerase, and the HCV IRES.
(§1) Expression of HCV IRES driven luciferase reporter activity and HCV RNA is measured to obtain indirect and direct measures of replication of HCV RNA respectively. Inhibitors of HCV replication and/or proliferation are determined by initially identifying molecules that inhibit expression of the HCV IRES driven luciferase reporter in this HCV Replicon Luciferase Assay. Cell viability assays and control cell based luciferase assays are then run on hits identified in the HCV Replicon Luciferase Assay to eliminate cytoxic compounds and non-specific compounds which act by inhibiting the luciferase enzyme.
(§2) Day 0, Cell Seeding and Compound Treatment: Huh-Luc-Neo Cells are seeded at 25,000/well in an opaque-walled 96 plate with Growth Medium (DMEM phenol red free+PS+2 mM glutamine; 100 μl/well). The compounds to be tested are added to the experimental wells (10 μl/well at 10× assay concentration) and the cells are then incubated (5% CO2, 37° C.) for 48 h.
Day 2, Reagent Preparation and Luciferase Assay: The Bright-Glo Luciferase Assay Buffer (Promega) is thawed and equilibrated to room temperature prior to use. The lyophilized Bright-Glo Luciferase Assay Substrate is equilibrated to room temperature prior to use. 10 ml of Bright-Glo Luciferase Assay Buffer is transferred to 1 vial of Bright-Glo Luciferase Assay Substrate bottle and mixed by gently with a Vortex. 100 μl of Bright-Glo Luciferase Assay reagent (Bright-Glo Luciferase Assay Buffer+Bright-Glo Luciferase Assay Substrate Mixture) is added to each well. The well contents are mixed for 5 min. on an orbital shaker at room temperature to induce cell lysis and the luminescence is then measured using a luminometer. The data is analyzed and IC50s are determined using GraphPad Prism 4 software. Hits validated in the Replicon Luciferase assay have IC50s<8.0 μM and show <30% inhibition of Cell Viability at a compound concentration of 100 μM (Cell Titer Glow Assay, cell viability assay conditions identical to HCV Replicon Luciferase Assay conditions).

HCV RNA = test: HCV Replicon RNA Assay (Taqman); assay type: cell-based, Hepatitis C virus; conditions: Hepatitis C virus; Huh-Luc-Neo cells, compound re-added at 24 h, HCV RNA by quantitative PCR; read-out: Replicon Inhibition*, Taqman
Description: as §1
as §2, with “C.).” for “C.) for 48 h.”
Day 1, Media Change and Compound Treatment: 24 hours after the initial compound treatment the cell culture media is aspirated from the wells and fresh Growth Medium is added (DMEM phenol red free+PS+2 mM glutamine; 100 μl/well). The compounds to be tested are then added to the appropriate experimental wells (10 μl/well at 10× assay concentration) and the cells are then incubated (5% CO2, 37° C.) for an additional 24 hrs.
Day 2, RNA Isolation and cDNA Synthesis: The cells are washed with 1× Phosphate Buffered Saline (PBS) once.
Day 3, Quantitative PCR Based Measurement of HCV RNA (Taqman Assay): Quantitative PCR analysis to measure HCV RNA expression from cDNA synthesized on Day 2 is performed using the ABI 9700 HT Sequence Detection System (Applied Biosystems) as previously described (Lohman et al, Science 285, 110-113, 1999). The data is analyzed and IC50s are determined using GraphPad Prism 4 software. Hits validated in the Replicon RNA Assay have IC50s<8.0 μM and show <30% inhibition of Cell Viability at a compound concentration of 50 μM (Cell Titer Glow Assay, cell viability assay conditions identical to HCV Replicon RNA Assay conditions).

[1] = CellTiter-Glo Cell Viability Assay; assay type: cell-based, human; conditions: human, Huh-Luc-Neo cells, read-out: Cytotoxicity*
Description: as §2, with “ul/well).” for “μl/well).”, “tested for inhibition of cell viability” for “tested”
(§3) Day 2, Reagent Preparation and Assay: The CellTiter-Glo Buffer is thawed and equilibrated to room temperature prior to use. The lyophilized CellTiter-Glo Substrate is equilibrated to room temperature prior to use. 10 ml of CellTiter-Glo Buffer is transferred to 1 vial of CellTiter-Glo Substrate and mixed by gently with a Vortex. 100 μl of CellTiter-Glo Assay reagent (CellTiter-Glo Buffer+CellTiter-Glo Substrate Mixture) is added to each well. The well contents are mixed for 5 min. on an orbital shaker at room temperature to induce cell lysis and the luminescence is then measured using a luminometer.

Huh-Luc-Neo Cells = test: CellTiter-Glo Cell Viability Assay; assay type: cell-based, human; conditions: 48 h, read-out: Cytotoxicity*
Description: as §2, with “ul/well).” for “μl/well).”, “tested for inhibition of cell viability” for “tested”
as §3

Row | Structure (SMILES) | IC50 (HCV Replicon) | IC50 (HCV RNA) | IC50 at 48 h [1] | IC50 (Huh-Luc-Neo Cells)
1 | Cn1c(=O)cc(Sc2ccc(Br)cc2)c2ccccc21 [compound 001] | 1 to 10 µM | < 1 µM | > 100 µM | 
2 | Cn1c(=O)cc(Sc2cc(Cl)ccc2Cl)c2ccccc21 [compound 006] | 10 to 100 µM | 1 to 10 µM | > 100 µM | 
3 | CCc1ccc2c(c1)c(Sc1ccc(N)cc1)cc(=O)n2C [compound 038] | < 1 µM | < 1 µM | > 100 µM | 
4 | C[C@H](OCc1ccccc1)[C@@H](NC(=O)OC(C)(C)C)C(=O)Nc1ccc(Sc2cc(=O)n(C)c3ccccc23)cc1 [compound 023] | 1 to 10 µM | 1 to 10 µM | > 100 µM | 
5 | Cc1cc2c(Sc3ccc(N)cc3)cc(=O)n(C)c2cc1C [compound 035] | < 1 µM | < 1 µM | > 100 µM | 
6 | Cn1c(=O)cc(Sc2ccc(Br)cc2)c2cc(Cl)ccc21 [compound 011] | 1 to 10 µM | 1 to 10 µM | > 100 µM | 
7 | Cn1c(=O)cc(Sc2cccc(F)c2)c2ccccc21 [compound 007] | 1 to 10 µM | 1 to 10 µM | > 100 µM | 
8 | Cn1c(=O)cc(Sc2ccc(N)cc2)c2ccc(Cl)cc21 [compound 027] | < 1 µM | < 1 µM | 10 to 100 µM | 
9 | Cn1c(=O)cc(Sc2ccc(NC(=O)[C@H](Cc3ccc(F)cc3)NC(=O)OC(C)(C)C)cc2)c2ccccc21 [compound 025] | 1 to 10 µM | 1 to 10 µM | > 100 µM | 
10 | Cn1c(=O)cc(Sc2ccc(Cl)cc2)c2cc(F)ccc21 [compound 015] | 1 to 10 µM | 1 to 10 µM | > 100 µM | 
11 | Cn1c(=O)cc(Sc2ccc(N)cc2)c2ccccc21 [compound 009] | < 1 µM | < 1 µM | > 100 µM | 
12 | Cn1c(=O)cc(Sc2ccc(NC(=O)[C@H](Cc3ccccc3)NC(=O)OC(C)(C)C)cc2)c2ccccc21 [compound 022] | 1 to 10 µM | 1 to 10 µM | > 100 µM | 
13 | CCn1c(=O)cc(Sc2ccc(Br)cc2)c2ccccc21 [compound 010] | 1 to 10 µM | < 1 µM | > 100 µM | 
14 | Cc1ccc2c(c1)c(Sc1ccc(Cl)cc1)cc(=O)n2C [compound 028] | < 1 µM | < 1 µM | 10 to 100 µM | 
15 | Cn1c(=O)cc(Sc2ccccc2F)c2ccccc21 [compound 005] | 1 to 10 µM | 1 to 10 µM |  | 10 to 100 µM
16 | Cc1ccc(Sc2cc(=O)n(C)c3ccc(C)cc23)cc1 [compound 032] | < 1 µM | < 1 µM | 10 to 100 µM | 
17 | COc1ccc2c(c1)c(Sc1ccc(N)cc1)cc(=O)n2C [compound 030] | < 1 µM | < 1 µM | 10 to 100 µM | 
18 | CC(=O)Nc1ccc(Sc2cc(=O)n(C)c3ccccc23)cc1 [compound 017] | 1 to 10 µM | 1 to 10 µM | > 100 µM | 
19 | Cn1c(=O)cc(Sc2c(Cl)cccc2Cl)c2ccccc21 [compound 004] | 1 to 10 µM | < 1 µM | > 100 µM | 

Row | Structure (SMILES) | IC50 (HCV Replicon) | IC50 (HCV RNA) | IC50 at 48 h [1] | IC50 (Huh-Luc-Neo Cells)
20 | COCCOCC(=O)Nc1ccc(Sc2cc(=O)n(C)c3ccccc23)cc1 [compound 021] | < 1 µM | 1 to 10 µM | > 100 µM | 
21 | Cn1c(=O)cc(Sc2ccc(N)cc2)c2cccnc21 [compound 019] | < 1 µM | 1 to 10 µM | > 100 µM | 
22 | Cn1c(=O)cc(Sc2ccc(F)cc2)c2ccccc21 [compound 003] | 1 to 10 µM | 1 to 10 µM | > 100 µM | 
23 | Cc1ccc2c(c1)c(Sc1ccc(Br)cc1)cc(=O)n2C [compound 031] | < 1 µM | < 1 µM | 10 to 100 µM | 
24 | Cc1cc2c(Sc3ccc(F)cc3)cc(=O)n(C)c2cc1C [compound 037] | < 1 µM | < 1 µM | > 100 µM | 
25 | Cn1c(=O)cc(Sc2ccc(C(C)(C)C)cc2)c2ccccc21 [compound 013] | 1 to 10 µM | < 1 µM | > 100 µM | 
26 | Cc1ccc(Sc2cc(=O)n(C)c3ccc(F)cc23)cc1 [compound 016] | 1 to 10 µM | 1 to 10 µM | > 100 µM | 
27 | Cc1ccc(NC(=S)Nc2ccc(Sc3cc(=O)n(C)c4ccc(C)cc34)cc2)cc1 [compound 036] | 1 to 10 µM | 1 to 10 µM | > 100 µM | 
28 | Cn1c(=O)cc(Sc2ccc(F)cc2)c2cc(F)ccc21 [compound 018] | 1 to 10 µM | 1 to 10 µM | > 100 µM | 
29 | Cn1c(=O)cc(Sc2ccc(Cl)cc2)c2ccccc21 [compound 002] | 1 to 10 µM | 1 to 10 µM | > 100 µM | 
30 | COc1ccc(Sc2cc(=O)n(C)c3ccccc23)cc1 [compound 012] | 1 to 10 µM | 10 to 100 µM | > 100 µM | 
31 | Cn1c(=O)cc(Sc2ccc(I)cc2)c2ccccc21 [compound 014] | 1 to 10 µM | < 1 µM | > 100 µM | 
32 | Cc1ccc(Sc2cc(=O)n(C)c3ncccc23)cc1 [compound 020] | < 1 µM | 1 to 10 µM | > 100 µM | 
33 | Cn1c(=O)cc(Sc2ccc(NC(=O)[C@@H](NC(=O)OC(C)(C)C)C3CCCCC3)cc2)c2ccccc21 [compound 024] | < 1 µM | 1 to 10 µM | > 100 µM | 
34 | Cc1ccc2c(c1)c(Sc1ccc(N)cc1)cc(=O)n2C [compound 033] | < 1 µM | < 1 µM | > 100 µM | 
35 | Cc1ccc2c(c1)c(Sc1ccc(F)cc1)cc(=O)n2C [compound 026] | < 1 µM | < 1 µM | 10 to 100 µM | 
36 | Cc1ccc(Sc2cc(=O)n(C)c3cc(C)c(C)cc23)cc1 [compound 034] | < 1 µM | < 1 µM | > 100 µM | 
37 | COc1ccc2c(c1)c(Sc1ccc(C)cc1)cc(=O)n2C [compound 029] | < 1 µM | < 1 µM | > 100 µM | 
